{
  "source": "patent US20150342968A1",
  "about": "“STABLE PHARMACEUTICAL COMPOSITION FOR TREATING OSTEOPOROSIS” (LANDSTEINER SCIENTIFIC S.A. DE C.V., priority 2012, published 2015)",
  "key": {"[1]": {"settings": "cited from earlier work"}, "[2]": {"assay": "Dissolution acid stage (gastro-resistance) of tablets of composition in Table 1", "assay_type": "physicochemical", "description": "(§1) Two stability tests of vitamin D3 and risedronate sodium were performed at different conditions by subjecting the tablets that were prepared according to the composition in Table 1. The conditions were as follows:\nThe product complies with the gastro-resistant stage, because it has an enteric coating to protect the mucous membranes while it passes through the gastrointestinal system."}, "[3]": {"assay": "Dissolution buffer stage pH 6.8 of tablets of composition in Table 1", "assay_type": "physicochemical", "description": "as §1\nIt is evident that the risedronate sodium dissolves quickly in a medium with pH 6.8, obtaining more than 100% in the first 10 minutes."}, "[4]": {"assay": "Evaluation of the stability of risedronate sodium in tablets of composition in Table 1", "assay_type": "physicochemical", "description": "as §1\n(§2) Two batches of the composition were subjected to different conditions to evaluate the stability of vitamin D3 and risedronate sodium. The conditions were the following: 30° C./65% RH, 40° C./75% RH and Cycled 40° C./75% RH-Cooling (2°-8° C.). The samples were submitted for 4 weeks and the following results were obtained.\nEvaluation of the Stability of Risedronate Sodium"}, "[5]": {"settings": "cited from earlier work", "remark": "listed apart in the source"}, "[6]": {"assay": "Evaluation of the stability of vitamin D3 in tablets of composition in Table 1", "assay_type": "physicochemical", "description": "as §1\nEvaluation Of The Stability Of Vitamin D3\nas §2"}},
  "note": "Several values for one entry are separate records, joined by “and”; a condition that tells them apart may be missing. Equal values may be shown once.",
  "data": [
    {"smiles": "O=P(O)(O)C(O)(Cc1cccnc1)P(=O)(O)O", "note": "[Risedronate sodium, risedronate sodium]", "values": [
      {"measurement": "plasmatic protein binding", "setting": "[1]", "result": 24, "unit": "%"},
      {"measurement": "Risedronate sodium Acid Stage % Dissolved", "setting": "[2]; individual samples S1-S6, specification no more than 10.0%", "result": "0.97% and 0.56% and 0.80% and 0.95% and 1.19% and 0.71%"},
      {"measurement": "Risedronate sodium Acid Stage % Dissolved, Maximum", "setting": "[2]; maximum of S1-S6", "result": 1.19, "unit": "%"},
      {"measurement": "Risedronate sodium Acid Stage % Dissolved, Mean", "setting": "[2]; mean of S1-S6", "result": 0.86, "unit": "%"},
      {"measurement": "Risedronate sodium Acid Stage % Dissolved, Minimum", "setting": "[2]; minimum of S1-S6", "result": 0.56, "unit": "%"},
      {"measurement": "Dissolution buffer stage, dissolved", "setting": "[3]; pH 6.8, 5 min", "result": 94.08, "unit": "%"},
      {"measurement": "Dissolution buffer stage, dissolved", "setting": "[3]; pH 6.8, 10 min", "result": "more than 100%"},
      {"measurement": "Dissolution buffer stage, dissolved", "setting": "[3]; pH 6.8, 10 min, listed as Risedronate Sodium 35 mg", "result": 100.93, "unit": "%"},
      {"measurement": "Dissolution buffer stage, dissolved", "setting": "[3]; pH 6.8, 15 min", "result": 100.84, "unit": "%"},
      {"measurement": "Dissolution buffer stage, dissolved", "setting": "[3]; pH 6.8, 20 min", "result": 100.94, "unit": "%"},
      {"measurement": "Dissolution buffer stage, dissolved", "setting": "[3]; pH 6.8, 30 min", "result": 100.12, "unit": "%"},
      {"measurement": "Dissolution buffer stage, dissolved", "setting": "[3]; pH 6.8, 45 min", "result": 100.48, "unit": "%"},
      {"measurement": "Risedronate sodium stability, Final", "setting": "[4]; Test 1, final (4 weeks)", "result": 100.66, "unit": "%"},
      {"measurement": "Risedronate sodium stability, Initial", "setting": "[4]; Test 1, initial", "result": 102.55, "unit": "%"},
      {"measurement": "Risedronate sodium stability, Final", "setting": "[4]; Test 2, final (4 weeks)", "result": 96.75, "unit": "%"},
      {"measurement": "Risedronate sodium stability, Initial", "setting": "[4]; Test 2, initial", "result": 100.99, "unit": "%"},
      {"measurement": "injected dose recovered in the urine", "setting": "[5]; after 28 days", "result": 85, "unit": "%"},
      {"measurement": "Tmax", "setting": "[5]; after an oral dose", "result": "~1", "unit": "h"},
      {"measurement": "part of the absorbed dose excreted in the urine", "setting": "[5]; first 24 hours", "result": "One half"},
      {"measurement": "mean volume of distribution at steady state equilibrium", "setting": "[5]; humans", "result": 6.3, "unit": "L/kg"}
    ]},
    {"smiles": "C=C1CC[C@H](O)C/C1=C/C=C1\\CCC[C@]2(C)[C@@H]([C@H](C)CCCC(C)C)CC[C@@H]12", "note": "[Vitamin D3, cholecalciferol]", "values": [
      {"measurement": "Vitamin D3 rating (stability)", "setting": "[6]; Test 1, week 0, 30° C./65% RH", "result": 100.00, "unit": "%"},
      {"measurement": "Vitamin D3 rating (stability)", "setting": "[6]; Test 1, week 0, 40° C./75% RH", "result": 100.00, "unit": "%"},
      {"measurement": "Vitamin D3 rating (stability)", "setting": "[6]; Test 1, week 0, Cycled 40° C./75% RH-cooling", "result": 100.00, "unit": "%"},
      {"measurement": "Vitamin D3 rating (stability)", "setting": "[6]; Test 1, week 1, 30° C./65% RH", "result": 102.02, "unit": "%"},
      {"measurement": "Vitamin D3 rating (stability)", "setting": "[6]; Test 1, week 1, 40° C./75% RH", "result": 98.34, "unit": "%"},
      {"measurement": "Vitamin D3 rating (stability)", "setting": "[6]; Test 1, week 1, Cycled 40° C./75% RH-cooling", "result": 98.69, "unit": "%"},
      {"measurement": "Vitamin D3 rating (stability)", "setting": "[6]; Test 1, week 2, 30° C./65% RH", "result": 99.20, "unit": "%"},
      {"measurement": "Vitamin D3 rating (stability)", "setting": "[6]; Test 1, week 2, 40° C./75% RH", "result": 98.12, "unit": "%"},
      {"measurement": "Vitamin D3 rating (stability)", "setting": "[6]; Test 1, week 2, Cycled 40° C./75% RH-cooling", "result": 97.90, "unit": "%"},
      {"measurement": "Vitamin D3 rating (stability)", "setting": "[6]; Test 1, week 4, 30° C./65% RH", "result": 96.39, "unit": "%"},
      {"measurement": "Vitamin D3 rating (stability)", "setting": "[6]; Test 1, week 4, 40° C./75% RH", "result": 96.03, "unit": "%"},
      {"measurement": "Vitamin D3 rating (stability)", "setting": "[6]; Test 1, week 4, Cycled 40° C./75% RH-cooling", "result": 96.09, "unit": "%"},
      {"measurement": "Vitamin D3 rating (stability)", "setting": "[6]; Test 2, week 0, 30° C./65% RH", "result": 100.00, "unit": "%"},
      {"measurement": "Vitamin D3 rating (stability)", "setting": "[6]; Test 2, week 0, 40° C./75% RH", "result": 100.00, "unit": "%"},
      {"measurement": "Vitamin D3 rating (stability)", "setting": "[6]; Test 2, week 0, Cycled 40° C./75% RH-cooling", "result": 100.00, "unit": "%"},
      {"measurement": "Vitamin D3 rating (stability)", "setting": "[6]; Test 2, week 1, 30° C./65% RH", "result": 97.34, "unit": "%"},
      {"measurement": "Vitamin D3 rating (stability)", "setting": "[6]; Test 2, week 1, 40° C./75% RH", "result": 99.62, "unit": "%"},
      {"measurement": "Vitamin D3 rating (stability)", "setting": "[6]; Test 2, week 1, Cycled 40° C./75% RH-cooling", "result": 95.55, "unit": "%"},
      {"measurement": "Vitamin D3 rating (stability)", "setting": "[6]; Test 2, week 2, 30° C./65% RH", "result": 96.93, "unit": "%"},
      {"measurement": "Vitamin D3 rating (stability)", "setting": "[6]; Test 2, week 2, 40° C./75% RH", "result": 97.80, "unit": "%"},
      {"measurement": "Vitamin D3 rating (stability)", "setting": "[6]; Test 2, week 2, Cycled 40° C./75% RH-cooling", "result": 96.31, "unit": "%"},
      {"measurement": "Vitamin D3 rating (stability)", "setting": "[6]; Test 2, week 4, 30° C./65% RH", "result": 94.79, "unit": "%"},
      {"measurement": "Vitamin D3 rating (stability)", "setting": "[6]; Test 2, week 4, 40° C./75% RH", "result": 96.32, "unit": "%"},
      {"measurement": "Vitamin D3 rating (stability)", "setting": "[6]; Test 2, week 4, Cycled 40° C./75% RH-cooling", "result": 94.79, "unit": "%"},
      {"measurement": "decrease in the vitamin D3 rating", "setting": "[6]; over the four weeks under the different conditions", "result": 5.96, "unit": "%"}
    ]}
  ]
}
